Patent US10821123B2, “Use of ribose for treatment of subjects having congestive heart failure” (priority 2016, dated 2020)

Experiments:
[1] = system: mice with chronic pressure overload (ascending aortic constriction); assay: Mouse model of chronic pressure overload (ascending aortic constriction), myocardial remodeling; type: in vivo
Source text: This remodeling effect was manifested by lower left ventricular dimensions, lower ventricular wall thicknesses, and greater fractional shortening values compared to untreated controls. […] The study consisted of two ribose treated groups (high and low dose) with the high dose treated group responding better than the low dose group compared to untreated controls. The high dose provided D-ribose exposures that were 4-fold greater than observed in the low dose group providing evidence of a dose effect. The once daily, subcutaneous administration of D-ribose was intended to mimic once daily oral dosing in humans. […] Mice were subjected to ascending aortic constriction (AAC) leading to LV hypertrophy followed by severe LV systolic dysfunction and associated heart failure. In this situation, mitochondrial ATP synthesis is reduced and ROS production is increased in association with advancing heart failure. Reduced ATP levels can contribute to progressive loss of cardiac function from increasing energy deficit. Increased ROS can result in oxidation of critical enzymes and a diminished reducing environment, leading to apoptosis and fibrosis, which are aspects of cardiac remodeling. Mice were divided into four groups; Sham controls (same thoracic surgery with no constriction), AAC untreated, and AAC D-ribose treated (high and low dose). D-ribose for injection (5% to 50% weight/volume) was administered at a dose of 25 to 500 mg/kg body weight by subcutaneous or intraperitoneal injection one to four times daily. After initiation of D-ribose treatment, animals in all groups were monitored for progressive heart failure using echocardiography. LV volumes, fractional shortening, and LV wall thicknesses were measured at 10 and 15 weeks. When LV dilation and fractional shortening were sufficiently advanced, animals were subjected to physical function testing using a motorized treadmill. Animals were allowed to recover for one week and their hearts were harvested and evaluated histologically for myocyte hypertrophy and fibrosis.

[2] = Safety, tolerability and pharmacokinetics of multiple oral doses of D-ribose solution in subjects with stable chronic heart failure; type: in vivo, human
Protocol: Although a morning oral dose of D-ribose (overnight fasting) produced significant blood plasma levels, the mid-day and evening doses produced diminished blood levels similar to that observed in healthy subjects given food immediately prior to dosing, even though D-ribose administration to subjects with stable congestive heart failure occurred over 2 hours after their previous meal.
The safety, tolerability, pharmacokinetics and pharmacodynamics of multiple oral doses of D-ribose solution was studied in 14 subjects with stable, chronic heart failure. It is well known that bolus oral D-ribose can induce a dose-dependent transient hypoglycemia that is preceeded by a transient spike in insulin levels. This can result in symptomatic hypoglycemia in subjects whose blood glucose levels fall sufficiently far. This transient hypoglycemia is the dose limiting side effect of D-ribose treatment, although it is readily overcome by drinking a glass of fruit juice. For this reason, subjects were initially administered a 10 g dose, fasted, followed 5 hours later by a 5 g dose at least 2.5 hours after the end of the previous meal. Subjects that tolerated the 10 g dose completed the remainder of the study at the 10 g dose. […] All subjects tolerated the 10 g dose, so the remainder of the study was conducted using the 10 g dose only. For the next two days, subjects were administered 10 g of D-ribose solution three times daily at 5 hour intervals beginning with a fasted morning dose around 7 a.m. Meals were served two hours after each dose such that the second and third daily doses were administered approximately 2.5 hours after completion of the previous meal. On the third day of dosing, subjects were administered a single dose of chewable tablets containing 16 g of glucose at 0, 30, and 60 minutes post-dose according to a predefined randomization schedule. The purpose of this was to determine whether glucose could attenuate any symptomatic hypoglycemia (if observed), or if it would impact the rate or extent of D-ribose absorption into the blood. Blood levels of D-ribose and insulin were determined at pre-defined time points throughout the study. Blood glucose levels were monitored continuously throughout the study. Four major outcomes emerged from this study. […] This phenomenon was not observed in normal subjects and appears unique to heart failure patients. Lastly, supplemental glucose administered between 0 and 60 minutes post-dose had no effect on D-ribose absorption into the blood.

[3] = system: dogs with pacing-induced heart failure; assay: Canine model of heart failure induced by chronic cardiac pacing, longevity; type: in vivo
Source text: It has been shown that administration of D-ribose can improve cardiac function in animal models of heart failure. […] Animals treated with once daily, oral D-ribose at a weight equivalent dose of 10 g in a 70 kg human lived 40% longer than placebo animals. It has been hypothesized that D-ribose helps retain cardiac function by maintaining the adenylate pool in cardiomyocytes that are overworked due to underlying heart disease. Supplemental D-ribose can bypass the cell's need to synthesize D-ribose via the pentose phosphate shunt, which can be a rate limiting step to synthesis of ATP in cardiomyocytes by either the salvage or de novo pathways. It has been shown in several studies that D-ribose can enhance the rate of recovery of ATP and other constituents of the adenylate pool in the hearts of animals subjected to hypoxic stress. However, there may be additional benefits to D-ribose treatment in subjects suffering from diminished mitochondrial function in disease states such as coronary artery disease, ischemic heart disease, dilated cardiomyopathy, or other conditions leading to heart failure.
Dogs were surgically implanted with a cardiac pacing device used to induce heart failure through chronic cardiac pacing. In addition, an aortic catheter, coronary sinus catheter (for blood sampling), left ventricular catheter and pressure transducer, left ventricular piezoelectric crystals, and a transonic flow probe in the left circumflex coronary artery were implanted to measure a variety of hemodynamic parameters and to sample coronary venous blood. Subsequent to recovery from surgery, animals were paced for 3 weeks at a rate of 210 beats per minute (bpm) followed by an increased rate of 350 bpm which continued until the animals were deemed to be terminal. Hemodynamic and metabolic measurements were made on a scheduled basis throughout the pacing period. Dogs were treated with 150 mg/kg D-ribose solution orally either once daily (fasted) or three times daily. Placebo dogs were given an equivalent volume of water. D-ribose treatment started 10 days following the start of pacing and continued until the animal was deemed to be terminal. […] However, one significant difference was how long the D-ribose treated animals lived. Dogs treated once daily lived an average of 38.3 days versus 27.3 days for placebo animals (p<0.03). Furthermore, although the group of dogs treated three times daily (tid) with D-ribose consisted of fewer animals than the group of dogs treated once daily, the tid group lived on average 30.5 days, which was not statistically different than placebo animals (p>0.20). […]

[4] = system: patients with NYHA Class II to IV heart failure; assay: Functional improvement in patients with NYHA Class II to IV heart failure taking D-ribose; type: in vivo, human; settings: 10 to 50 g oral once daily fasted
Protocol: (§1) Oral D-ribose powder for solution is administered at a dose of 10 to 50 grams per dose, once daily, fasted (e.g., 3 hours, 4, hours, 5 hours, 6 hours, 7 hours, 8 hours, 9 hours, 10 hours, 11 hours, 12 hours, or more). D-ribose powder for solution is dissolved in 50 to 250 mL of water or clear beverage and is consumed within a 15 to 60 minute period. It is preferred that D-ribose be administered to patients that are fasted. Patients are administered D-ribose for a period of at least two weeks, but possibly for the remainder of their lives.

[5] = system: patients with NYHA Class II to IV heart failure; assay: Remodeling effects in patients with NYHA Class II to IV heart failure taking D-ribose; type: in vivo, human; settings: 10 to 50 g oral once daily fasted, within 3 months to one year
Protocol: as §1, with “and” for “and is”, “administered” for “administered to patients that are”, “weeks” for “weeks,”, “lives. Within a period of 3 months to one year, in at least some embodiments, patients taking D-ribose may have a lower Left Ventricular Systolic Volume Index ([…]), a lower Left Ventricular Diastolic Volume Index ([…]), higher Ejection Fractions (EF), higher dP/dtmax values, lower dP/dtmin values, and/or higher cardiac output than patients taking placebo.” for “lives.”

[6] = system: patients with acute decompensated heart failure; assay: Dyspnea and/or edema in patients hospitalized for acutely decompensated heart failure; type: in vivo, human; settings: 10 to 50 g oral once daily fasted
Protocol: Patients admitted to the hospital for acute decompensated heart failure may be given oral D-ribose powder for solution at a dose of 10 to 50 grams per dose, once daily, fasted (e.g., 3 hours, 4, hours, 5 hours, 6 hours, 7 hours, 8 hours, 9 hours, 10 hours, 11 hours, 12 hours, or more). D-ribose powder for solution is dissolved in 50 to 250 mL (preferably 50 mL in this case) of water or clear beverage and consumed within a 15 to 60 minute period. It is preferred that D-ribose be administered to patients that are fasted. Patients are treated until symptoms of dyspnea and fluid overload have stabilized.

[7] = healthy subjects, oral; cited from earlier work
[8] = high dose AAC D-ribose treated vs AAC control mice, p<0.05
[9] = low dose AAC D-ribose treated vs AAC controls, not statistically significant

O=C[C@H](O)[C@H](O)[C@H](O)CO [D-ribose]
heart weights ([1]; D-ribose treated animals vs untreated controls): heart weights were greater in untreated controls than D-ribose treated animals
fibrosis by differential staining (tissue sections) [1, 8]: significantly less fibrosis
myocyte diameters (tissue sections) [1, 8]: significantly smaller
left ventricular fractional shortening (echocardiography) ([1]; high dose AAC D-ribose treated vs AAC controls, p<0.01): significantly lower degree of remodeling
left ventricular dimensions (echocardiography) ([1]; high dose AAC D-ribose treated vs AAC controls, p<0.01 at systole, p=0.01 at diastole): significantly lower degree of remodeling
total wall thickness (echocardiography) ([1]; high dose AAC D-ribose treated vs AAC controls, p<0.03): significantly lower degree of remodeling
left ventricular dimensions (echocardiography) [1, 9]: numerical improvements
left ventricular fractional shortening (echocardiography) [1, 9]: numerical improvements
total wall thickness (echocardiography) ([1]; low dose AAC D-ribose treated vs AAC controls, p<0.04): statistically significant
D-ribose exposure, high dose relative to low dose group ([1]; mice, once daily subcutaneous dose): 4 fold
episodes of symptomatic hypoglycemia ([2]; 10 g bolus oral dose, even with fasted doses): no episodes of symptomatic hypoglycemia
tolerability ([2]; 10 g bolus oral dose, subjects with stable chronic heart failure): well tolerated
effect of supplemental glucose on D-ribose absorption into the blood ([2]; 16 g glucose chewable tablets at 0, 30 or 60 minutes post-dose): no effect
share of non-fasted doses with blood levels less than 15% of a 10 g fasted dose ([2]; oral 10 g mid-day and evening doses): 30%
blood levels from mid-day and evening doses relative to 10 g fasted morning dose ([2]; oral 10 g, approximately 2.5 hours after previous meal): roughly 40%
mean blood level exposure of mid-day 5 g dose, lower than 10 g fasted morning dose ([2]; oral, 5 g mid-day dose at least 2.5 hours after previous meal vs 10 g fasted morning dose): 30 fold
hemodynamics or other metabolic measures vs placebo ([3]; 150 mg/kg oral D-ribose treated dogs): no significant differences
average survival time ([3]; 150 mg/kg oral once daily (fasted), p<0.03 vs placebo (27.3 days)): 38.3 days
average survival time ([3]; 150 mg/kg oral three times daily (tid), p>0.20 vs placebo, not statistically different): 30.5 days
longer life than placebo animals ([3]; once daily oral dose equivalent to 10 g in a 70 kg human): 40%
sub-maximal (Six Minute Walk Test) or maximal (CPX) exercise capacity [4]: may exhibit improved sub-maximal exercise capacity
assessments of fatigue, dyspnea, edema, Global Clinical Status and other outcomes ([4]; within 3 months to one year, vs patients not taking D-ribose): may show improved assessments
LVESVI, LVEDVI, EF, dP/dtmax, dP/dtmin, cardiac output vs placebo [5]: may have a lower Left Ventricular Systolic Volume Index (LVESVI)
symptoms of dyspnea vs patients taking diuretics only [6]: may exhibit reduced symptoms of dyspnea within a significantly shorter timeframe
absorption relative to metabolism [7]: absorbed faster than it is metabolized
blood levels after administration immediately following meals vs after fasting [7]: greatly reduced
dose proportionality of blood levels [7]: increase more than proportionally with increasing dose
